Here are results for 1 molecule from ChEMBL document CHEMBL1671651, “Azithromycin in Pseudomonas aeruginosa biofilms: bactericidal activity and selection of nfxB mutants” (2009).

In brackets after ≈: the same amount, converted by molar mass. Activity calls are given as the source filed them.

For test [1], the system named is Pseudomonas aeruginosa. As to the kind of experiment: Bactericidal activity against mutS::lox-deficient Pseudomonas aeruginosa PAOMS biofilm assessed as increase in viable cells at day 7 relative to wild-type. The class given is functional.
Test [2] has as its system Pseudomonas aeruginosa. As to the kind of experiment: Bactericidal activity against mutS::lox-deficient Pseudomonas aeruginosa PAOMS biofilm assessed as reduction in bacterial load at 0.5 ug/ml for 7 days measured on day 1. It counts as functional.
Test [3] deals with Pseudomonas aeruginosa. As to the kind of experiment: Antimicrobial activity against nfxB gene-deficient Pseudomonas aeruginosa PAONB assessed as increase in viable cells at 0.5 to 4 ug/ml after 24 hrs relative to wild-type. The class given is functional.
Test [4] has as its system Pseudomonas aeruginosa. As to the kind of experiment: Antimicrobial activity against mucA::lox, mutS::lox-deficient Pseudomonas aeruginosa PAOMSA planktonic cells by microdilution method. The class given is functional. For orientation: In broth dilution the organism is exposed to a series of concentrations in liquid medium.
Test [5] deals with Pseudomonas aeruginosa. The test is described as follows: Bactericidal activity against mutS::lox-deficient Pseudomonas aeruginosa PAOMS biofilm assessed as reduction in bacterial load at 256 ug/ml for 7 days measured on day 1. The class given is functional.
Test [6] deals with Pseudomonas aeruginosa. As to the kind of experiment: Bactericidal activity against mucA::lox-deficient Pseudomonas aeruginosa PAOMA biofilm assessed as reduction in bacterial load at => 4 ug/ml upto 7 days. It counts as functional, organism-based.
Test [7] relates to Pseudomonas aeruginosa. As to the kind of experiment: Antimicrobial activity against mutS::lox-deficient Pseudomonas aeruginosa PAOMS planktonic cells by microdilution method. The class given is functional.
For test [8], the system named is Pseudomonas aeruginosa. As to the kind of experiment: Bactericidal activity against mucA::lox, mutS::lox-deficient Pseudomonas aeruginosa PAOMSA biofilm assessed as reduction in bacterial load at 256 ug/ml for 7 days measured on day 1. It counts as functional.
Test [9] deals with Pseudomonas aeruginosa. The test is described as follows: Bactericidal activity against mucA::lox, mutS::lox-deficient Pseudomonas aeruginosa PAOMSA biofilm assessed as increase in viable cells relative to […]. It counts as functional.
The test system of test [10] is Pseudomonas aeruginosa. As to the kind of experiment: Bactericidal activity against mucA::lox, mutS::lox-deficient Pseudomonas aeruginosa PAOMSA biofilm assessed as increase in viable cells at 4 ug/ml for 7 days. It counts as functional, organism-based.
Test [11] deals with Pseudomonas aeruginosa. As to the kind of experiment: Bactericidal activity against mucA::lox, mutS::lox-deficient Pseudomonas aeruginosa PAOMSA biofilm assessed as increase in viable cells at 16 ug/ml. The class given is functional, organism-based.
The test system of test [12] is Pseudomonas aeruginosa. The test is described as follows: Bactericidal activity against mutS::lox-deficient Pseudomonas aeruginosa PAOMS biofilm assessed as increase in viable cells at 4 ug/ml for 4 days. It counts as functional, organism-based.
In test [13] the test system is Pseudomonas aeruginosa. The test is described as follows: Antimicrobial activity against mucA::lox-deficient Pseudomonas aeruginosa PAOMA planktonic cells by microdilution method. The class given is functional.
Test [14] deals with Pseudomonas aeruginosa. The test is described as follows: Bactericidal activity against Pseudomonas aeruginosa PAO1 biofilm assessed as reduction in bacterial load at => 4 ug/ml upto 7 days. It counts as functional, organism-based.
Test [15] has as its system Pseudomonas aeruginosa. The test is described as follows: Bactericidal activity against mucA::lox, mutS::lox-deficient Pseudomonas aeruginosa PAOMSA biofilm assessed as increase in viable cells at 4 ug/ml for 4 days. It counts as functional, organism-based.
Test [16] concerns Pseudomonas aeruginosa. As to the kind of experiment: Antimicrobial activity against Pseudomonas aeruginosa PAO1 planktonic cells by microdilution method. The class given is functional.
Test [17] concerns Pseudomonas aeruginosa. The test is described as follows: Bactericidal activity against mutS::lox-deficient Pseudomonas aeruginosa PAOMS biofilm assessed as increase in viable cells at 4 ug/ml for 7 days. The class given is functional, organism-based.
Test [18] relates to Pseudomonas aeruginosa. The test is described as follows: Antimicrobial activity against mexD gene-deficient Pseudomonas aeruginosa […] assessed as increase in viable cells at 0.5 to 4 ug/ml after 24 hrs relative to wild-type. The class given is functional.
The subject of test [19] is Pseudomonas aeruginosa. As to the kind of experiment: Bactericidal activity against Pseudomonas aeruginosa PAO1 biofilm assessed as reduction in bacterial load at 0.5 ug/ml for 7days measured on day 1. It counts as functional.
The test system of test [20] is Pseudomonas aeruginosa. As to the kind of experiment: Bactericidal activity against Pseudomonas aeruginosa PAO1 biofilm assessed as reduction in bacterial load at 256 ug/ml for 7 days measured on day 1. It counts as functional.

For orientation: MIC means the smallest concentration in the dilution series that meets the test's criterion for growth inhibition. Low readings indicate greater potency, high ones weaker potency. In the case of `CC[C@H]1OC(=O)[C@H](C)[C@@H](O[C@H]2C[C@@](C)(OC)[C@@H](O)[C@H](C)O2)[C@H](C)[C@@H](O[C@@H]2O[C@H](C)C[C@H](N(C)C)[C@H]2O)[C@](C)(O)C[C@@H](C)CN(C)[C@H](C)[C@@H](O)[C@]1(C)O` [AZITHROMYCIN], the “fold change (FC)” value in test [1] came out at 50; in test [3] it was 1; in [9], 5000; in test [18], 1. Besides, the log10cfu in test [2] amounted to 2; in [5], 4; in [8], 2; in test [19], 2; in test [20], 4. For the same molecule, the MIC in [4], in [7], in [13] and in test [16] was 128 µg/mL (≈ 171 µM) in each case. The result in test [6] and in test [14] was Active. The result in [10], in test [11], in test [12], in test [15] and in test [17] was inactive.
